TGI and GI50 data for 10 compounds are collected here from PubChem BioAssay (NCI).

Where “and” joins values, the source holds several entries; their conditions need not be identical. Equal values may be shown once.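 Exposure lasted 48 hours, with cells grown in 96-well plates and compounds tested at five concentrations. Here, GI50 denotes the concentration required for 50% inhibition of growth. At the TGI there is no net growth.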 A value given as a limit tells only on which side of the number the result lay.

Experiment in all cases: inhibition of tumour cell growth, NCI panel, 48 h
The test system of experiment [1] is KM12 colon.
Experiment [2] deals with HT29 colon.
Experiment [3] concerns SF-295 CNS.
The test system of experiment [4] is DMS 114 small cell lung.
The subject of experiment [5] is OVCAR-8 ovarian.
In experiment [6] the test system is K-562 leukemia.
For experiment [7], the system named is SK-MEL-5 melanoma.
In experiment [8] the test system is SK-OV-3 ovarian.
Experiment [9] concerns HS 578T breast.

Consider `CS(=O)(=O)NNS(=O)(=O)c1ccccc1`, for which the TGI in experiment [1], in experiment [2], in experiment [3], in [4], in experiment [5] and in [6] was more than 100 µM in each case. In addition, the TGI in experiment [7] was more than 100 µM.

For `Cc1ccc(C(NC(=O)c2ccccc2)c2ccc3cccnc3c2O)cc1` (stereo not drawn), the GI50 in experiment [1] was 0.38 µM; in experiment [2], 0.536 µM; in experiment [8], 0.474 µM; in experiment [9], 1.25 µM; in experiment [3] it was 0.351 µM; in experiment [5] it was 0.306 µM. In addition, the results for the GI50 in [6] and in [7] were 0.349 µM and 0.201 µM, respectively. The TGI in [1] was more than 43.7 µM; in [2], 19.4 µM; in [8] it was 30.7 µM; in experiment [9], more than 74.7 µM; in [3] it was 14.7 µM; in experiment [5] it was 25.1 µM. The TGI in experiment [6] worked out at 90 µM; in [7], 0.439 µM.

Consider `COc1ccc(C(c2ccc(OCCN(C)C)cc2)c2cc3ccccc3c3ccccc23)cc1` (stereo not drawn), for which the GI50 in experiment [1] is 1.8 µM; in experiment [2], 1.6 µM; in experiment [8], 6.62 µM; in [9], 1.66 µM; in experiment [3], 1.77 µM; in experiment [5], 1.7 µM. The GI50 in experiment [6] is 1.49 µM; in experiment [7] it was 1.69 µM. The TGI in [1] stood at 3.39 µM; in [2], 3.1 µM; in [8] it was 20.4 µM; in [9] it was 3.62 µM; in [3] it was 3.33 µM; in experiment [5], 3.17 µM. Besides, the TGI in [6] was found to be 3.41 µM; in experiment [7] it was 3.11 µM.

Turning to `CN(Cc1cccc(F)c1)c1ccc(CO)c(Cl)c1`, the GI50 in experiment [1] was 20.5 µM; in experiment [2], 7.02 µM; in [8], 11.4 µM; in experiment [9] it was 25 µM; in experiment [3], 3.6 µM; in experiment [5], 20.3 µM. For the same compound, the GI50 was 8.99 µM in [6] and 11 µM in [7]. In addition, the TGI was 79.6 µM in experiment [1]; 59.7 µM in [2]; 50.4 µM in [8]; more than 100 µM in experiment [9]; more than 100 µM in [3]; more than 100 µM in [5]. For the same compound, the TGI was more than 100 µM in experiment [6] and 23.3 µM in experiment [7].

Take `CC1=C(/C=C/C(C)=C/C=C/C(C)=C/C=N/NC(=S)NC(=S)N/N=C/C=C(C)/C=C/C=C(C)/C=C/C2=C(C)CCCC2(C)C)C(C)(C)CCC1`: the GI50 in experiment [1] is 2.74 µM and 1.32 µM; in experiment [2], 1.91 µM and 1.07 µM; in experiment [8] it was 6.79 µM and 5.51 µM; in [9] it was 3.25 µM and 1.91 µM; in [3] it was 4.09 µM and 2.1 µM; in [5], 3.71 µM and 2.06 µM. For the same compound, the GI50 is 1.96 µM and 1.29 µM in [6]; 1.55 µM and 1.56 µM in [7]. Also, the TGI in experiment [1] was 9.21 µM and 3.97 µM; in experiment [2], 8.83 µM and 3.69 µM; in experiment [8], 14 µM and 12.3 µM; in [9], 18.7 µM and 9.97 µM; in [3], 11.7 µM and 9.42 µM; in experiment [5], 12.3 µM and 7.32 µM. Besides, the TGI in experiment [6] was 8.62 µM and 6.63 µM; in [7], 5.03 µM and 6.03 µM.

`COC1=C(C)C(=O)c2c(c(CCCl)c3n2CCC3O)C1=O` (stereo not drawn): the GI50 in [1] is 1.37 µM; in experiment [2], 0.197 µM; in experiment [8] it was 0.412 µM; in experiment [9] it was 1.06 µM; in experiment [3], 0.237 µM; in experiment [5], 1.78 µM. For the same compound, the GI50 was 2.21 µM in experiment [6] and 0.148 µM in [7]. Besides, the TGI was 6.73 µM in experiment [1]; 0.67 µM in experiment [2]; 3.37 µM in experiment [8]; 6.65 µM in experiment [9]; 0.779 µM in experiment [3]; 23.9 µM in experiment [5]. Further, the TGI in experiment [6] was more than 40.7 µM; in experiment [7] it was 0.291 µM.

As for `Cc1cn(C2C=CC(CO)O2)c(=O)[nH]c1=O` (stereo not drawn), the TGI in experiment [1], in [2], in experiment [8], in experiment [9], in experiment [3] and in experiment [5] was more than 1000 µM each time. Moreover, the TGI in [6] and in experiment [7] was more than 1000 µM each time.

On to `CCN(Cc1ccc(F)cc1)c1ccc(CO)c(C)c1`, for which the GI50 in [1] was 19.6 µM; in [2], 20.7 µM; in experiment [8], 8.91 µM; in experiment [9] it was 11.7 µM; in experiment [3] it was 10.9 µM; in experiment [5], 11.9 µM. In addition, the GI50 in [6] is 9.03 µM; in experiment [7], 10.2 µM. In addition, the TGI is 45.1 µM in experiment [1]; 55.8 µM in experiment [2]; 41.5 µM in experiment [8]; 64.8 µM in experiment [9]; 32.8 µM in experiment [3]; 38.4 µM in [5]. The TGI in [6] was more than 72.5 µM; in experiment [7] it was 22.8 µM.

For `O=C(O)c1cn(C2CC2)c2cc(N3CCN(C(=O)Nc4nc(-c5ccccc5)cs4)CC3)c(F)cc2c1=O`, the GI50 in [1] was 0.485 µM; in [2] it was 0.636 µM; in experiment [8] it was 1.95 µM; in experiment [9] it was 0.861 µM; in [3], 2.13 µM; in [5] it was 1.45 µM. Also, the figures for the GI50 in [6] and in [7] were 2.05 µM and 0.824 µM, respectively. For the same compound, the TGI in experiment [1] turned out to be 23.7 µM; in experiment [2] it was 4.67 µM; in experiment [8] it was 7.38 µM; in experiment [9], 72.1 µM; in experiment [3], 9.24 µM; in [5], 49.2 µM. For the same compound, the results for the TGI in experiment [6] and in experiment [7] were more than 100 µM and 2.87 µM, respectively.

`CC(C)N1CCN(Cc2ccc3c(NNC(=O)c4ccccc4)nc4cc(F)ccc4n23)CC1`: the GI50 in [1] is 0.397 µM; in [2], 0.673 µM; in experiment [8] it was 0.338 µM; in experiment [9], 4.23 µM; in experiment [3], 0.277 µM; in experiment [5] it was 0.381 µM. Moreover, the GI50 is 0.379 µM in [6] and 0.921 µM in [7]. For the same compound, the TGI was 11 µM in experiment [1]; 7.46 µM in [2]; 15.3 µM in [8]; 26.9 µM in [9]; 1.69 µM in experiment [3]; 27.4 µM in experiment [5]. In addition, the results for the TGI in [6] and in experiment [7] were 3.87 µM and 3.11 µM, respectively.
